SMILES strings stand for the structures.

Data set [1] in a line: logP determination by HPLC (reversed-phase C 18), EEC Directive 79/831 Annex V.A8. Particulars: acidic range, 0.1% aqueous phosphoric acid/acetonitrile; for chromatographic logP: reversed-phase C18 HPLC column, pH 2, reversed-phase C 18, 43° C.; for logP (pH 2): reversed-phase C 18, 43° C. In kind it is physicochemical. Here is the method:
The logP values given in the Tables and Preparation Examples above are determined in accordance with EEC Directive 79/831 Annex V.A8 by HPLC (High Performance Liquid Chromatography) using a reversed-phase column (C 18). Temperature: 43° C.
The determination is carried out in the acidic range at pH 2.3 using the-mobile phases 0.1% aqueous phosphoric acid and acetonitrile; linear gradient from 10% acetonitrile to 90% acetonitrile.

Data set [2] relates to larvae of the mustard beetle (Phaedon cochleariae). Nature of the data set: Phaedon larvae test (dipped cabbage leaves). Format: in vivo. Particulars: 500 ppm active compound, kill after 7 d, cabbage leaves (Brassica oleracea). How it is done:
(§1) • Solvent: 7 parts by weight of dimethylformamide • Emulsifier: 2 parts by weight of alkylaryl polyglycol ether
(§2) To produce a suitable preparation of active compound, 1 part by weight of active compound is mixed with the stated amount of solvent and emulsifier, and the concentrate is diluted with emulsifier-containing water to the desired concentration.
After the desired period of time, the kill in % is determined. 100% means that all beetle larvae have been killed; 0% means that none of the beetle larvae have been killed.

In data set [3] the test system is caterpillars of the army worm (Spodoptera frugiperda). In words: Spodoptera frugiperda test (dipped cabbage leaves). In kind it is in vivo. As to conditions: for Efficacy in % after 7d: 500 ppm active compound, kill after 7 d, cabbage leaves (Brassica oleracea); for kill: active compound concentration of 500 ppm, after 7 days. How it is done: Spodoptera frugiperda Test
as §1, §2
Cabbage leaves (Brassica oleracea) are treated by being dipped into the preparation of active compound of the desired concentration and are populated with caterpillars of the army worm (Spodoptera frugiperda) while the leaves are still moist.
After the desired period of time, the kill in % is determined. 100% means that all caterpillars have been killed; 0% means that none of the caterpillars have been killed.

For the compound `CC(C)(C)n1nnc(-c2cnn(CC(=O)c3ccc(Cl)cc3)c2)n1` [2-[4-(2-tert-butyltetrazol-5-yl)pyrazol-1-yl]-4′-chloroacetophenone], the chromatographic logP in data set [1] is 2.96.
On to `O=C(Cn1cc(-c2nn[nH]n2)cn1)c1ccc(Cl)cc1` [2-[4-(tetrazol-5-yl)pyrazol-1-yl]-4′-chloroacetophenone], for which the chromatographic logP in data set [1] amounted to 1.6.
As to `Cn1nnc(-c2cnn(C3CN(C(=O)N(CC#N)c4ccc(OC(F)(F)F)cc4)N=C3c3ccc(Cl)cc3)c2)n1` (centres unmarked) [Example 6], the chromatographic logP in data set [1] was determined as 3.51. Further, the “Efficacy in % after 7d” value in data set [2] and in data set [3] was 100% throughout.
Compound `CC(C)(C)n1nnc(-c2cnn(C3CNN=C3c3ccc(Cl)cc3)c2)n1` (centres unmarked) [3-(4-chlorophenyl)-4-[4-(2-tert-butyltetrazol-5-yl)pyrazol-1-yl]4,5-dihydro-1H-pyrazole] returned a chromatographic logP in data set [1] of 2.91.
As for `Cn1nnc(-c2cnn(C3CN(C(=O)Nc4ccc(OC(F)(F)F)cc4)N=C3c3ccc(Cl)cc3)c2)n1` (centres unmarked) [Example 4], the chromatographic logP in data set [1] stood at 3.75. In data set [3], the “Efficacy in % after 7d” value turned out to be 100% and the kill is on record as 100%.
On to `CC(C)(C)n1nnc(-c2cnn(C3CN(C(=O)Nc4ccc(OC(F)(F)F)cc4)N=C3c3ccc(Cl)cc3)c2)n1` (centres unmarked) [Example 1, N-(4-trifluoromethoxy)-3-(4-chlorophenyl)-4-[4-(2-tert-butyltetrazol-5-yl)pyrazol-1-yl]-4,5-dihydro-1-pyrazolecarboxanilide], for which the “logP (pH 2)” value in data set [1] was 4.63.
Turning to `CC(C)(C)n1nnc(-c2cnn(C3CN(C(=O)N(CC#N)c4ccc(OC(F)(F)F)cc4)N=C3c3ccc(Cl)cc3)c2)n1` (centres unmarked) [Example 2, N-cyanomethyl-N(4-trifluoromethoxy)-3-(4-chlorophenyl)-4-[4-(2-tert-butyltetrazol-5-yl)pyrazol-1-yl]-4,5-dihydro-1-pyrazolecarboxanilide], in data set [1], the “logP (pH 2)” value amounted to 4.40. Further, the “Efficacy in % after 7d” value in data set [2] and in data set [3] was 100% in each case. For the same compound, in data set [3], the kill worked out at 100%.
